# According to BindingDB's records for doi:10.1021/acs.jmedchem.1c00049 (Genentech, 2021):
# Key:
# [1] = Inhibition of human Nav1.7 expressed in HEK293 cells incubated for 1 hr in presence of veratridine by sodium influx assay
# [2] = Displacement of [3H]GX-545 Nav1.7 (unknown origin) expressed in HEK cells by liquid scintillation counting based radioligand competition assay
IC50 [1],IC50 [2],Structure (SMILES)
26 nM,0.8 nM,"CC(C)(c1cc(Cl)cc(Cl)c1)N1CCC(COc2cc(F)c(C(=O)NS(C)(=O)=O)cc2C2CC2)CC1 [US9546164, 209]"
34 nM,9.8 nM,"CS(=O)(=O)NC(=O)c1cc(C2CC2)c(OCC2CCN(C(=O)c3cc(Cl)cc(Cl)c3)CC2)cc1F [US9546164, 253]"
14 nM,1.1 nM,"O=C(NS(=O)(=O)C1CC1)c1cc(C2CC2)c(OCC23CC4CC(CC(C4)C2)C3)cc1F [US8952169, 148]"
,2.3 nM,"O=C(NS(=O)(=O)N1CCOCC1)c1cc(C2CC2)c(OCC23CC4CC(CC(C4)C2)C3)cc1F [US8952169, 155]"
3200 nM,140 nM,CS(=O)(=O)NC(=O)c1cc(C2CC2)c(OCC2CCN(Cc3ccccc3)CC2)cc1F
23 nM,5.5 nM,"CS(=O)(=O)NC(=O)c1cc(C2CC2)c(OCC2CN(C(c3ccccc3)c3ccccc3)C2)cc1F [US8952169, 440]"
38 nM,4 nM,O=C(NS(=O)(=O)C1COC1)c1cc(C2CC2)c(OCC23CC4CC(CC(C4)C2)C3)cc1F
66 nM,3.6 nM,CS(=O)(=O)NC(=O)c1cc(C2CC2)c(OCC2CCN(C(c3ccccc3)c3ccccc3)CC2)cc1F
42 nM,22 nM,"CS(=O)(=O)NC(=O)c1cc(C2CC2)c(OCC2CCN(Cc3ccc(Cl)cc3)CC2)cc1F [US9546164, 104]"
120 nM,2.4 nM,"CS(=O)(=O)NC(=O)c1cc(C2CC2)c(OCC2CCN(Cc3cc(Cl)cc(Cl)c3)CC2)cc1F [US9546164, 139]"
160 nM,2.2 nM,"O=C(NS(=O)(=O)N1CCCC1)c1cc(C2CC2)c(OCC23CC4CC(CC(C4)C2)C3)cc1F [US8952169, 154]"
31 nM,7.7 nM,"CS(=O)(=O)NC(=O)c1cc(C2CC2)c(OCC2CCN(Cc3ccc(OC(F)(F)F)cc3)CC2)cc1F [US9546164, 135]"
